Reference: publication PMC11904993, “Humanized Candida and NanoBiT Assays Expedite Discovery of Bdf1 Bromodomain Inhibitors With Antifungal Potential” (Advanced Science, 2025)
Several values for one entry are separate records, joined by “and”; a condition that tells them apart may be missing. Equal values may be shown once. Read-outs that look alike come from different tables or passages of the source.

Experiments:
[1] = test system: C. glabrata strains expressing WT and mutant Bdf1; test: Growth inhibition in liquid media, C. glabrata lab strains; conditions: for OD at 600 nm: Figure S4B, Exp 1-3; for EC50: Nakaseomyces glabratus; for pEC50 growth inhibition: Fig 2C
Method: Growth on Liquid Media with C. glabrata Lab Strains: Cells were grown at 30 °C in SC+M+C‐U medium (SC medium with 5 mM methionine, 0.25 mM cysteine, without uracil) to an OD600 of 0.5–0.8. […] Plates were incubated at 30 °C and OD600 was measured using a Multiskan FC Microplate Photometer (Thermo Fisher).

[2] = target: CgBdf1 BD2 (Candida glabrata, UniProt Q6FWV7); test: biochemical; format: binding, C. glabrata; conditions: for IC50: read-out: pIC50 CgBD2 (converted)
CgBdf1 BD2, sequence (Q6FWV7 entry or part of it): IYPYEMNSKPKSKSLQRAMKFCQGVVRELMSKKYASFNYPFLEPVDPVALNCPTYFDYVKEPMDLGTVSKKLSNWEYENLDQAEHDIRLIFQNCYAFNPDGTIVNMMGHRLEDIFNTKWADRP

[3] = target: CgBdf1 BD1 (Candida glabrata, UniProt Q6FWV7); test: HTRF assay, inhibition of H4ac4 peptide binding; parameters: species or system C. glabrata; conditions: for IC50 / pIC50 CgBD1: single experiments Exp1-3; for IC50: read-out: pIC50 CgBD1 (converted)
CgBdf1 BD1, sequence (Q6FWV7 entry or part of it): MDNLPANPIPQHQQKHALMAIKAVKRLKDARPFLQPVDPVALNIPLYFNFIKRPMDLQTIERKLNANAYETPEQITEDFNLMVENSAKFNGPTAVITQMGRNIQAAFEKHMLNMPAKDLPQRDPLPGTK

[4] = read-out: pEC50 (WT BDF1), Fig 2D (converted), WT C. glabrata, single experiments Exp1-3
[5] = read-out: pEC50 growth inhibition, Fig 2C (converted), strain BD1 Y-F, single experiments Exp1-3
[6] = Fig 2C original data, analogs of 24
[7] = strain BD2 Y-F, single experiments Exp1-3
[8] = read-out: pEC50 growth inhibition, Fig 2C (converted), strain BD2 Y-F, single experiments Exp1-3
[9] = Fig 2C original data, analogs of 24, single experiments Exp1-3

CCOC(=O)Nc1cc(-c2ccc(C)c(NS(C)(=O)=O)c2)nn2c(C)nnc12 [Bromosporine, reference compound]
OD at 600 nm ([1]; WT BDF1 strain): 0.446 and 0.443 and 0.490
OD at 600 nm ([1]; bdf1-bd1Δ strain): 0.422 and 0.447 and 0.470
OD at 600 nm ([1]; bdf1-bd2Δ strain): 0.242 and 0.229 and 0.260
remaining activity at 0.07813 µM ([2]; 24 h, CgBD2, Conc 78.13 nM, replicate experiments, read-out: HTRF signal relative to no-compound control (Figure S4A raw data)): 106%
remaining activity at 0.15625 µM ([2]; 24 h, CgBD2, Conc 156.25 nM, replicate experiments, read-out: HTRF signal relative to no-compound control (Figure S4A raw data)): 113%
remaining activity at […] ([2]; 24 h, CgBD2, Conc 2500 nM, replicate experiments, read-out: HTRF signal relative to no-compound control (Figure S4A raw data)): 79.8%
remaining activity at 5 µM ([2]; 24 h, CgBD2, Conc 5000 nM, replicate experiments, read-out: HTRF signal relative to no-compound control (Figure S4A raw data)): 60.1%
remaining activity at 10 µM ([2]; 24 h, CgBD2, Conc 10000 nM, replicate experiments, read-out: HTRF signal relative to no-compound control (Figure S4A raw data)): 30.8%
remaining activity at 20 µM ([2]; 24 h, CgBD2, Conc 20000 nM, replicate experiments, read-out: HTRF signal relative to no-compound control (Figure S4A raw data)): 23.4%
IC50 ([2]; Fig 1D/2A original data, single experiments Exp1-3): 4.9 µM and 4.17 µM
remaining activity at 0.07813 µM ([3]; 4 h, CgBD1, Conc 78.13 nM, replicate experiments, read-out: HTRF signal relative to no-compound control (Figure S4A raw data)): 98%
remaining activity at 0.3125 µM ([3]; 4 h, CgBD1, Conc 312.5 nM, replicate experiments, read-out: HTRF signal relative to no-compound control (Figure S4A raw data)): 97.9%
remaining activity at […] ([3]; 4 h, CgBD1, Conc 2500 nM, replicate experiments, read-out: HTRF signal relative to no-compound control (Figure S4A raw data)): 94.3%
remaining activity at 5 µM ([3]; 4 h, CgBD1, Conc 5000 nM, replicate experiments, read-out: HTRF signal relative to no-compound control (Figure S4A raw data)): 80.9%
remaining activity at 10 µM ([3]; 4 h, CgBD1, Conc 10000 nM, replicate experiments, read-out: HTRF signal relative to no-compound control (Figure S4A raw data)): 75.9%
remaining activity at 20 µM ([3]; 4 h, CgBD1, Conc 20000 nM, replicate experiments, read-out: HTRF signal relative to no-compound control (Figure S4A raw data)): 49.4%
IC50 ([3]; Fig 1D/2A original data): 23.4 µM and 12.3 µM and 20 µM

Cc1ccc(-c2nnc(C)c(NCc3ccco3)n2)cc1 [Compound 24a]
EC50 [1, 4]: 206 µM
EC50 [1, 5]: > 251 µM
pIC50 CgBD1 [3, 6]: 5.099 and 5.219 and 5.157
fold drop in CgBD1 inhibition ([3]; relative to 24, thiophenyl replaced by furyl or methylfuryl): 3 fold

Cc1cccc(-c2nnc(C)c(NCc3ccco3)n2)c1 [Compound 24b]
pEC50 growth inhibition [1, 7]: 3.930 and 3.985
EC50 [1, 4]: > 251 µM
EC50 [1, 5]: > 251 µM
EC50 [1, 8]: 74.8 µM
IC50 [2, 9]: 29.5 µM and 74.6 µM and > 100 µM
IC50 [3, 6]: 12.6 µM and 14.6 µM and 22.2 µM

Cc1cccc(-c2nnc(C)c(NCc3ccc(C)o3)n2)c1 [Compound 24d]
pEC50 growth inhibition ([1]; strain BD1 Y-F, single experiments Exp1-3): 3.797 and 3.888
pEC50 growth inhibition [1, 7]: 4.459 and 4.324
pEC50 (WT BDF1) ([1]; Fig 2D, WT C. glabrata, single experiments Exp1-3): 3.713 and 3.843
EC50 [1, 4]: 101 µM
EC50 [1, 5]: 134 µM
EC50 [1, 8]: 44.7 µM
IC50 [2, 9]: 16.4 µM and 18.7 µM and 21.5 µM
IC50 [3, 6]: 14.2 µM and 12.2 µM and 11.5 µM

COc1cccc(CNc2nc(-c3ccc(C)cc3)nnc2C)c1 [Compound 24f]
pEC50 growth inhibition [1, 7]: 4.188
EC50 [1, 4]: > 251 µM
EC50 [1, 5]: > 251 µM
EC50 [1, 8]: 68.2 µM
IC50 [2, 9]: > 100 µM
IC50 [3, 6]: 3.66 µM and 2.81 µM and 2.3 µM

COc1ccc(-c2nnc(C)c(NCc3ccccc3)n2)cc1 [Compound 24g]
pEC50 growth inhibition [1, 7]: 4.261 and 4.310
EC50 [1, 4]: > 251 µM
EC50 [1, 5]: > 251 µM
EC50 [1, 8]: 43.2 µM
pIC50 CgBD2 [2, 9]: 4.269 and <4
pIC50 CgBD1 [3, 6]: 6.145 and 5.997

COc1ccc(CNc2nc(-c3ccc(C)cc3)nnc2C)cc1OC [Compound 24i]
EC50 [1, 4]: > 251 µM
EC50 [1, 5]: > 251 µM
EC50 [1, 8]: > 251 µM
IC50 [2, 9]: 44.1 µM and 45 µM and 41.5 µM
IC50 [3, 6]: 2.61 µM and 2.54 µM and 2.62 µM

COc1ccc(CNc2nc(-c3cccc(C)c3)nnc2C)cc1OC [Compound 24j]
EC50 [1, 4]: > 251 µM
EC50 [1, 5]: > 251 µM
EC50 [1, 8]: > 251 µM
IC50 [2, 9]: 57 µM and 58.2 µM and 82.4 µM
IC50 [3, 6]: 4.11 µM and 5.81 µM and 4.81 µM

COC(=O)c1ccc(CNc2nc(-c3ccc(C)cc3)nnc2C)cc1 [Compound 24k, Methyl 4‐(((6‐methyl‐3‐(p‐tolyl)‐1,2,4‐triazin‐5‐yl)amino)methyl)benzoate]
EC50 [1, 4]: > 251 µM
EC50 [1, 5]: > 251 µM
EC50 [1, 8]: > 251 µM
IC50 [2, 9]: > 100 µM
IC50 [3, 6]: > 100 µM

COC(=O)c1cccc(CNc2nc(-c3ccc(C)cc3)nnc2C)c1 [Compound 24l, Methyl 3‐(((6‐methyl‐3‐(p‐tolyl)‐1,2,4‐triazin‐5‐yl)amino)methyl)benzoate]
EC50 [1, 4]: > 251 µM
EC50 [1, 5]: > 251 µM
EC50 [1, 8]: > 251 µM
IC50 [2, 9]: > 100 µM
IC50 [3, 6]: 79.4 µM and 39.6 µM and 89.9 µM
